Patent US20150093333A1, “COMPOSITIONS, METHODS AND USES FOR PEPTIDES IN DIAGNOSIS, PROGRESSION AND TREATMENT OF CANCERS” (THE REGENTS OF THE UNIVERSITY OF COLORADO, body corporate, priority 2003, published 2015)

Legend:
isolated microvesicles = assay: Fluorescence enhancement with isolated rat microvesicles; format: binding
Experimental: In another exemplary method, having established the simultaneous curvature- and PS-sensing by MARCKS-ED in synthetic liposomes, MARCKS-ED was tested on detection of highly curved, PS-enriched particles in a complex biological system. Microvesicles (ø=0.03-1 μm) are highly curved lipid vesicles that shed into body fluids (e.g., blood, urine, ascitic fluid). These vesicles are released by cancerous cells in which lipid asymmetry is de-regulated, contributing to externalization and enrichment of PS on their outer leaflet. The microvesicle detecting ability of MARCKS-ED was investigated using plasma samples from a stressed rat model. […]
Microvesicles in these samples were characterized by TEM imaging, and ELISA of detection of the signature CD63 protein and the membrane transport protein Rab5b exposed on the surface. Particles expressing both proteins were captured by antibodies and quantified in a colorimetric endpoint assay.
These isolated microvesicles were measured by nanoparticle tracking analysis (NTA) to confirm their average size (ø=56 nm). Tracking analyses were performed using the NanoSight LM10-HS instrument (Amesbury, UK) equipped with a 532 nm laser and observed at scatter and fluorescence modes (filter=550 nm). […]
Monitored at λex=295 nm, Annexin-V (0.32 μM) was treated with CaCl2 (3 mM) in TES buffer and with 500 μM lipid vesicles of varying PS content. […]

[1] = target: lipid vesicles 60% POPC:15% cholesterol:15% POPE:10% POPS; assay: Fluorescence anisotropy titration of NBD-labeled MARCKS peptides with lipid vesicles; format: binding
Experimental: In another example, because fluorescence enhancement assays could not distinguish the contributions between different degrees of membrane penetration and binding affinity, fluorescence anisotropy assay was performed to specifically measure the binding affinity of the MARCKS derived peptides. The NBD-labeled peptides (1 μM) were titrated by synthetic liposomes of various sizes (30, 100, and 400 nm). Fluorescence anisotropy was recorded using a Fluorolog-3 fluorometer. The mixture was allowed to equilibrate for 2 minutes prior to the next titration. The excitation wavelength was set to λex=480 nm whereas the emission filter was set to λem=545 nm. The voltage was set to 250 V throughout the experiment. Blank PBS (pH=7.40) was titrated to NBD-labeled peptides as a negative control, where negligible anisotropy change was observed. The following equation was used to determine the dissociation constants as previously reported: Fb=Kp [L]/(1+KP[L]), where Fb expresses the fraction of peptide bound to lipids, Kp expresses the molar partition coefficient and [L] expresses the lipid concentration.
Lipid vesicles were titrated to NBD-labeled MARCKS-ED, MARCKSmut1, or MARCKSmut2 peptides. Since the peptide partitions between the hydrophobic lipid bilayer and the aqueous solvent, the molar partition coefficient is often reported. By definition, the apparent dissociation constant (Kd), described as the lipid concentration where 50% of the peptide is bound, is the reciprocal of the molar partition coefficient (Kp). Fluorescence anisotropy assay results indicated efficient curvature sensing by MARCKS-ED. FIG. 4C represents an exemplary fluorescence anisotropy titration of MARCKS-ED with various lipid vesicles. FIG. 4D provides data of fluoresence anisotropy titration of various MARCKS derived peptides. Lipid vesicles used in the experiments represented by FIGS. 4C-4D contained 60% POPC:15% cholesterol: 15% POPE: 10% POPS. […] As a comparison, C2AB illustrated a 1.9 fold increase in binding to smaller vesicles (105 nm) relative to the larger ones (252 nm). […] In addition, electrostatic interactions of MARCKSmut2 were also compromised. […] Such defects would permit the Phe residue to insert and stabilize the highly curved membranes.

Kd ([1]; 30 nm pore size lipid vesicles containing 10% PS): 24 ± 3 µM | Kd ([1]; 100 nm pore size lipid vesicles containing 10% PS): 42 ± 13 µM | Kd ([1]; 400 nm pore size lipid vesicles containing 10% PS): 86 ± 20 µM
Sequence: KKKKKRFSFKKSFKLSGFSFKKNKK [MARCKS-ED]
binding to isolated microvesicles (fluorescence enhancement) (isolated microvesicles): demonstrated to bind to these biological particles
